Experimental data from patent US20240317721A1, “PYRAZOLYL DERIVATIVES AS INHIBITORS OF THE KRAS MUTANT PROTEIN” (NOVARTIS AG, priority 2021, published 2024).

The molecules below were run against KRasG12C (M1-K169, biotinylated on the N-terminus) (Homo sapiens (Human), UniProt P01116, G12C) (assay: Covalent competition assay: scintillation proximity assay (SPA) quantifying covalent modification of KRASG12C). Conditions: competition with radiolabeled covalent probe (Compound B/Compound A), 2 hours incubation, 10 nM KRasG12C.
Format: binding
Summary of the method: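 Test compounds compete with a radiolabeled covalent probe for modification of N-terminally biotinylated KRasG12C(M1-K169):GDP, final 10 nM protein, 25 nM radio-ligand, 475 nM unlabelled ligand, 2 h with agitation in 20 mM Tris-HCl pH 7.5, 150 mM NaCl, 0.1 mM MgCl2, 0.01% Tween-20.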
In the case of `C=CC(=O)N1CC2(CC(n3nc(N4CC[C@@H](CN5CCN(C6COC6)CC5)CC4(C)C)c(-c4c(Cl)c(C)cc5[nH]ncc45)c3C)C2)C1` (single isomer, unassigned) [Example 246b], the IC50 is reported as 15 nM.
With `C=CC(=O)N1CC2(CC(n3nc(N4CCC(CN5CCN(C)CC5=O)CC4(C)C)c(-c4c(Cl)c(Cl)cc5[nH]ncc45)c3C)C2)C1` (single isomer, unassigned) [Example 240a, 1-((1-(1-(2-acryloyl-2-azaspiro[3.3]heptan-6-yl)-4-(5,6-dichloro-1H-indazol-4-yl)-5-methyl-1H-pyrazol-3-yl)-2,2-dimethylpiperidin-4-yl)methyl)-4-methylpiperazin-2-one] the IC50 was 390 nM.
With `C=CC(=O)N1CC2(CC(n3nc(N4CC[C@@H](CN5CCCC6CN(C)C(=O)C65)CC4(C)C)c(-c4c(Cl)c(Cl)cc5[nH]ncc45)c3C)C2)C1` (single isomer, unassigned) [Example 261a, (4aR*,7aR*)-1-(((R)-1-(1-(2-acryloyl-2-azaspiro[3.3]heptan-6-yl)-4-(5,6-dichloro-1H-indazol-4-yl)-5-methyl-1H-pyrazol-3-yl)-2,2-dimethylpiperidin-4-yl)methyl)-6-methyloctahydro-7H-pyrrolo[3,4-b]pyridin-7-one] the IC50 was > 5000 nM.
`C=CC(=O)N1CC2(CC(n3nc(N4CC[C@@H](CN5CC6(C5)CS(=O)(=O)C6)CC4(C)C)c(-c4c(Cl)c(Cl)cc5[nH]ncc45)c3C)C2)C1` (single isomer, unassigned) [Example 248b] was tested, and the IC50 was 9 nM.
In the case of `C=CC(=O)N1CC2(CC(n3nc(N4CC[C@@H](CN5CCOC[C@@H]5CO)CC4(C)C)c(-c4c(Cl)c(Cl)cc5[nH]ncc45)c3C)C2)C1` (single isomer, unassigned) [Example 303b], the IC50 is reported as 5 nM.
With `C=CC(=O)N1CC2(CC(n3nc(N4CCC(N(CC)C5COC5)CC4(C)C)c(-c4c(Cl)c(C)cc5[nH]ncc45)c3C)C2)C1` (single isomer, unassigned) [Example 48a, 1-(6-(4-(5-chloro-6-methyl-1H-indazol-4-yl)-3-(4-(ethyl(oxetan-3-yl)amino)-2,2-dimethylpiperidin-1-yl)-5-methyl-1H-pyrazol-1-yl)-2-azaspiro[3.3]heptan-2-yl)prop-2-en-1-one] the IC50 was 296 nM.
In the case of `CC#CC(=O)N1CC2(CC(n3nc(N4CCN(C5COC5)CC45CCC5)c(-c4c(Cl)c(C)cc5[nH]ncc45)c3C)C2)C1` (single isomer, unassigned) [Example 78b, 1-(6-(4-(5-chloro-6-methyl-1H-indazol-4-yl)-5-methyl-3-(8-(oxetan-3-yl)-5,8-diazaspiro[3.5]nonan-5-yl)-1H-pyrazol-1-yl)-2-azaspiro[3.3]heptan-2-yl)but-2-yn-1-one], the IC50 is reported as > 5000 nM.
In the case of `C=CC(=O)N1CC2(CC(n3nc(N4CCN(C(=O)OC)CC4(C)C)c(-c4c(Cl)c(C)cc5[nH]ncc45)c3C)C2)C1` (single isomer, unassigned) [Example 125b, methyl 4-(1-(2-acryloyl-2-azaspiro[3.3]heptan-6-yl)-4-(5-chloro-6-methyl-1H-indazol-4-yl)-5-methyl-1H-pyrazol-3-yl)-3,3-dimethylpiperazine-1-carboxylate], the IC50 is reported as 35 nM.
Work on `C=CC(=O)N1CC2(CC(n3nc(N4CC[C@@H](CN5CC6(O)CC5C6)CC4(C)C)c(-c4c(Cl)c(Cl)cc5[nH]ncc45)c3C)C2)C1` (single isomer, unassigned) [Example 293a] yielded an IC50 of 4000 nM.
In the case of `C=CC(=O)N1CC2(CC(n3nc(N4CC[C@@H](CN5CCN(C6COC6)CC5)CC4(C)C)c(-c4c(C)c(Cl)cc5[nH]ncc45)c3C)C2)C1` (single isomer, unassigned) [Example 244b], the IC50 is reported as 6 nM.
`C=CC(=O)N1CC2(CC(n3nc(N4CCC(CN5CC6CC(C5)O6)CC4(C)C)c(-c4c(Cl)c(Cl)cc5[nH]ncc45)c3C)C2)C1` (single isomer, unassigned) [Example 228b, 1-(6-(3-(4-((6-oxa-3-azabicyclo[3.1.1]heptan-3-yl)methyl)-2,2-dimethylpiperidin-1-yl)-4-(5,6-dichloro-1H-indazol-4-yl)-5-methyl-1H-pyrazol-1-yl)-2-azaspiro[3.3]heptan-2-yl)prop-2-en-1-one] gave an IC50 of 281 nM.
`C=CC(=O)N1CC2(CC(n3nc(N4CCC(N(C)C5COC5)CC4(C)C)c(-c4c(Cl)c(Cl)cc5[nH]ncc45)c3C)C2)C1` (single isomer, unassigned) [Example 50b, 1-(6-(4-(5,6-dichloro-1H-indazol-4-yl)-3-(2,2-dimethyl-4-(methyl(oxetan-3-yl)amino)piperidin-1-yl)-5-methyl-1H-pyrazol-1-yl)-2-azaspiro[3.3]heptan-2-yl)prop-2-en-1-one] was tested, and the IC50 was 5 nM.
`C=CC(=O)N1CC2(CC(n3nc(N4CCN(C5CCOCC5)C[C@]4(C)COC)c(-c4c(Cl)c(Cl)cc5[nH]ncc45)c3C)C2)C1` (single isomer, unassigned) [Example 150a] was tested, and the IC50 was 252 nM.
`C=CC(=O)N1CC2(CC(n3nc(N4CCN(C5COC5)C5COCC54)c(-c4c(Cl)c(C)cc5[nH]ncc45)c3C)C2)C1` (single isomer, unassigned) [Example 136a, 1-(6-(4-(5-chloro-6-methyl-1H-indazol-4-yl)-5-methyl-3-((4aS*,7aS*)-4-(oxetan-3-yl)hexahydrofuro[3,4-b]pyrazin-1(2H)-yl)-1H-pyrazol-1-yl)-2-azaspiro[3.3]heptan-2-yl)prop-2-en-1-one] showed an IC50 of 846 nM.
Molecule `C=CC(=O)N1CC2(CC(n3nc(N4CCN(CC(C)(C)O)CC45CCC5)c(-c4c(OC)c(Cl)cc5[nH]ncc45)c3C)C2)C1` [Example 168, 1-(6-(4-(6-chloro-5-methoxy-1H-indazol-4-yl)-3-(8-(2-hydroxy-2-methylpropyl)-5,8-diazaspiro[3.5]nonan-5-yl)-5-methyl-1H-pyrazol-1-yl)-2-azaspiro[3.3]heptan-2-yl)prop-2-en-1-one] has an IC50 of 302 nM.
Molecule `C=CC(=O)N1CC2(CC(n3nc(N4CCC(N5C[C@H]6C[C@@H]5CN6S(C)(=O)=O)CC4(C)C)c(-c4c(Cl)c(Cl)cc5[nH]ncc45)c3C)C2)C1` (single isomer, unassigned) [Example 212a] has an IC50 of 358 nM.
`CC#CC(=O)N1CC2(CC(n3nc(N4CCN(C5COC5)CC45CCC5)c(-c4c(Cl)c(C)cc5[nH]ncc45)c3C)C2)C1` (single isomer, unassigned) [Example 78a, 1-(6-(4-(5-chloro-6-methyl-1H-indazol-4-yl)-5-methyl-3-(8-(oxetan-3-yl)-5,8-diazaspiro[3.5]nonan-5-yl)-1H-pyrazol-1-yl)-2-azaspiro[3.3]heptan-2-yl)but-2-yn-1-one] was tested, and the IC50 was 1300 nM.
`C=CC(=O)N1CC2(CC(n3nc(N4CCN(CCOC)C[C@]4(C)C(F)F)c(-c4c(Cl)c(C)cc5[nH]ncc45)c3C)C2)C1` (single isomer, unassigned) [Example 178b] showed an IC50 of 48 nM.
For `C=CC(=O)N1CC2(CC(n3nc(N4CC[C@@H](CN5CCN(C)[C@H](CO)C5)CC4(C)C)c(-c4c(Cl)c(Cl)cc5[nH]ncc45)c3C)C2)C1` (single isomer, unassigned) [Example 270b], the IC50 was 5 nM.
Work on `C=CC(=O)N1CC2(CC(n3nc(N4CC[C@@H](CN5CCC6COCC65)CC4(C)C)c(-c4c(C)c(Cl)cc5[nH]ncc45)c3C)C2)C1` (single isomer, unassigned) [Example 305b, 1-(6-(4-(6-chloro-5-methyl-1H-indazol-4-yl)-3-((R)-4-(((3aR*,6aR*)-hexahydro-1H-furo[3,4-b]pyrrol-1-yl)methyl)-2,2-dimethylpiperidin-1-yl)-5-methyl-1H-pyrazol-1-yl)-2-azaspiro[3.3]heptan-2-yl)prop-2-en-1-one] yielded an IC50 of 19 nM.
`C=CC(=O)N1CC2(CC(n3nc(N4CCN(C5COC5)C[C@]4(C)CC)c(-c4c(Cl)c(C)cc5[nH]nc(N)c45)c3C)C2)C1` (single isomer, unassigned) [Example 158a] showed an IC50 of 6 nM.
`C=CC(=O)N1CC2(CC(n3nc(N4CCN(C5CCOCC5)C[C@]4(C)COC)c(-c4c(Cl)c(C)cc5[nH]nc(N)c45)c3C)C2)C1` (single isomer, unassigned) [Example 90a] was tested, and the IC50 was 23 nM.
In the case of `C=CC(=O)N1CC2(CC(n3nc(N4CC[C@@H](CN5CCN(CCOC)C(=O)C5)CC4(C)C)c(-c4c(Cl)c(Cl)cc5[nH]ncc45)c3C)C2)C1` (single isomer, unassigned) [Example 256a], the IC50 is reported as 1300 nM.
Work on `C=CC(=O)N1CC2(CC(n3nc(N4CC[C@@H](CN5CCOC6CS(=O)(=O)CC65)CC4(C)C)c(-c4c(Cl)c(Cl)cc5[nH]ncc45)c3C)C2)C1` (single isomer, unassigned) [Example 265b, 1-(6-(4-(5,6-dichloro-1H-indazol-4-yl)-3-((R)-4-(((4aR*,7aS*)-6,6-dioxidohexahydro-4H-thieno[3,4-b][1,4]oxazin-4-yl)methyl)-2,2-dimethylpiperidin-1-yl)-5-methyl-1H-pyrazol-1-yl)-2-azaspiro[3.3]heptan-2-yl)prop-2-en-1-one] yielded an IC50 of 9 nM.
`C=CC(=O)N1CC2(CC(n3nc(N4CC[C@@H](CN(C)S(=O)(=O)N5CCN(C)CC5)CC4(C)C)c(-c4c(Cl)c(Cl)cc5[nH]ncc45)c3C)C2)C1` (single isomer, unassigned) [Example 304a] was tested, and the IC50 was > 5000 nM.
`C=CC(=O)N1CC2(CC(n3nc(N4CCN(CCN5CCOCC5=O)C[C@]4(C)CC)c(-c4c(Cl)c(C)cc5[nH]ncc45)c3C)C2)C1` (single isomer, unassigned) [Example 177a] was tested, and the IC50 was 8 nM.
In the case of `C=CC(=O)N1CC2(CC(n3nc(N4CCN(Cc5cn(C)nn5)C[C@]4(C)CC)c(-c4c(Cl)c(C)cc5[nH]ncc45)c3C)C2)C1` (single isomer, unassigned) [Example 188b], the IC50 is reported as 6 nM.
With `C=CC(=O)N1CC2(CC(n3nc(N4CCN(C(C)=O)CC45CCC5)c(-c4c(Cl)c(C)cc5[nH]ncc45)c3C)C2)C1` (single isomer, unassigned) [Example 21a, 1-(6-(3-(8-acetyl-5,8-diazaspiro[3.5]nonan-5-yl)-4-(5-chloro-6-methyl-1H-indazol-4-yl)-5-methyl-1H-pyrazol-1-yl)-2-azaspiro[3.3]heptan-2-yl)prop-2-en-1-one] the IC50 was 11100 nM.
